From ChEMBL document CHEMBL1255477, “In vitro properties of BAL30072, a novel siderophore sulfactam with activity against multiresistant gram-negative bacilli” (Antimicrob Agents Chemother, 2010)
pIC50: −log10 of the molar value. In brackets after ≈: the same amount, converted by molar mass. Activity calls are given as the source filed them. The calls are words filed in the database; no cut-off is given here.

Columns and labels:
[1] = Inhibition of beta-lactamase KPC-2
[2] = system: Pseudomonas aeruginosa; assay: Antimicrobial activity against oprD protein deficient Pseudomonas aeruginosa C2 by broth dilution method; type: functional
[3] = system: Pseudomonas aeruginosa; assay: Microbicidal activity against Pseudomonas aeruginosa 527 selected after 4 times MIC compound exposure; type: functional
[4] = system: Proteus penneri; assay: Antimicrobial activity against Proteus penneri by broth dilution method; type: functional
[5] = system: Escherichia coli; assay: Antimicrobial activity against Escherichia coli K802N harboring beta-lactamase TEM-3 by broth dilution method; type: functional
[6] = Inhibition of beta-lactamase SHV-4
[7] = system: Pseudomonas aeruginosa; assay: Antimicrobial activity against Pseudomonas aeruginosa HPA10586 assessed as log reduction in colony count within 6 hrs selected after 1 to 16 times MIC compound exposure; type: functional, organism-based
[8] = system: Pseudomonas aeruginosa; assay: microbe, parasite or virus in culture; settings: BA
Description: Antimicrobial activity against Pseudomonas aeruginosa BA harboring beta-lactamase Class C by broth dilution method

[9] = system: Stenotrophomonas maltophilia; assay: Antimicrobial activity against Stenotrophomonas maltophilia 1AC736 assessed as log reduction in colony count within 6 hrs selected after 1 to 16 times MIC compound exposure; type: functional, organism-based
[10] = Inhibition of Pseudomonas aeruginosa 143724R beta-lactamase class C
[11] = Inhibition of Escherichia coli Penicillin-binding protein 1A
[12] = system: Enterobacter cloacae; assay: Antimicrobial activity against Enterobacter cloacae S4741B assessed as log reduction in colony count after 24 hrs; type: functional
[13] = system: Klebsiella aerogenes; assay: Antimicrobial activity against Enterobacter aerogenes by broth dilution method; type: functional
[14] = system: Pseudomonas aeruginosa; assay: Antimicrobial activity against Pseudomonas aeruginosa 860 assessed as highest concentration at which colonies reappeared; type: functional
[15] = system: Pseudomonas aeruginosa; assay: Antimicrobial activity against Pseudomonas aeruginosa 1024 assessed as log reduction in colony count within 6 hrs selected after 4 to 8 times MIC compound exposure; type: functional, organism-based
[16] = system: Serratia marcescens; assay: Antimicrobial activity against Serratia marcescens by broth dilution method; type: functional
[17] = system: Acinetobacter baumannii; assay: Antimicrobial activity against Acinetobacter baumannii HPA74510 assessed as log reduction in colony count after 24 hrs; type: functional
[18] = system: Enterobacter cloacae; assay: Antimicrobial activity against Enterobacter cloacae S9369 assessed as highest concentration at which colonies reappeared; type: functional
[19] = Inhibition of beta-lactamase VIM-1
[20] = system: Pseudomonas aeruginosa; assay: Antimicrobial activity against Pseudomonas aeruginosa B4 by broth dilution method; type: functional
[21] = system: Pseudomonas aeruginosa; assay: Antimicrobial activity against mexAB-oprM protein and mexCD-oprJ deficient Pseudomonas aeruginosa PAO253 overexpressing MexEF-OprN gene by broth dilution method; type: functional
[22] = system: Proteus mirabilis; assay: Antimicrobial activity against Proteus mirabilis by broth dilution method; type: functional
[23] = system: Burkholderia sp.; assay: Antimicrobial activity against Burkholderia sp. by broth dilution method; type: functional
[24] = system: Stenotrophomonas maltophilia; assay: Microbicidal activity against Stenotrophomonas maltophilia 1AC736 selected after MIC of compound exposure; type: functional
[25] = Inhibition of Escherichia coli Penicillin-binding protein 2
[26] = system: Pseudomonas aeruginosa; assay: Antimicrobial activity against Pseudomonas aeruginosa 621 assessed as number of passages required for MIC to rise above 4 times original MIC; type: functional
[27] = system: Escherichia coli; assay: Antimicrobial activity against Escherichia coli W3110 assessed as appearance of short filaments at 4 ug/mL after 3 hrs by phase-contrast microscopy; type: functional, organism-based
[28] = system: Escherichia coli; assay: Antimicrobial activity against Escherichia coli W3110 assessed as appearance of colony at 4 times MIC concentration; type: functional, organism-based
[29] = system: Acinetobacter baumannii; assay: Antimicrobial activity against Acinetobacter baumannii HPA74510 assessed as highest concentration at which colonies reappeared; type: functional
[30] = system: Escherichia coli; assay: Antimicrobial activity against Escherichia coli W3110 assessed as appearance of spheroplast at 4 ug/mL after 3 hrs by phase-contrast microscopy; type: functional, organism-based
[31] = system: Acinetobacter junii; assay: Antimicrobial activity against Acinetobacter junii 15218 assessed as number of passages required for MIC to rise above 4 times original MIC; type: functional
[32] = system: Acinetobacter junii; assay: Antimicrobial activity against Acinetobacter junii 15218 assessed as highest concentration at which colonies reappeared; type: functional
[33] = system: Pseudomonas aeruginosa; assay: Antimicrobial activity against Pseudomonas aeruginosa 1937E harboring beta-lactamase PSE-4 and class C enzymes by broth dilution method; type: functional
[34] = system: Enterobacter cloacae; assay: Antimicrobial activity against Enterobacter cloacae S4741B assessed as number of passages required for MIC to rise above 4 times original MIC; type: functional
[35] = system: Acinetobacter baumannii; assay: Microbicidal activity against Acinetobacter baumannii HPA74510 selected after 4 times MIC compound exposure; type: functional
[36] = system: Enterobacteriaceae; assay: Antimicrobial activity against Enterobacteriaceae by broth dilution method; type: functional
[37] = system: Enterobacter cloacae; assay: Antimicrobial activity against Enterobacter cloacae S9369 assessed as log reduction in colony count after 24 hrs; type: functional
[38] = system: Acinetobacter sp.; assay: Antimicrobial activity against Acinetobacter sp. by broth dilution method; type: functional
[39] = system: Escherichia coli; assay: Antimicrobial activity against Escherichia coli W3110 assessed as highest concentration at which colonies reappeared; type: functional
[40] = system: Providencia rettgeri; assay: Antimicrobial activity against Providencia rettgeri J96 harboring beta-lactamase IMP-1 by broth dilution method; type: functional
[41] = system: Stenotrophomonas maltophilia; assay: Antimicrobial activity against Stenotrophomonas maltophilia 1AC736 assessed as number of passages required for MIC to rise above 4 times original MIC; type: functional
[42] = system: Pseudomonas aeruginosa; assay: Antimicrobial activity against Pseudomonas aeruginosa HPA101-1477 harboring beta-lactamase IMP-1 by broth dilution method; type: functional
[43] = system: Acinetobacter baumannii; assay: Antimicrobial activity against Acinetobacter baumannii HPA74510 assessed as number of passages required for MIC to rise above 4 times original MIC; type: functional
[44] = system: Pseudomonas aeruginosa; assay: Antimicrobial activity against fpvA deficient Pseudomonas aeruginosa (560546)9 M.P. by broth dilution method; type: functional
[45] = system: Pseudomonas aeruginosa; assay: Microbicidal activity against Pseudomonas aeruginosa HPA10586 selected after 8 times MIC compound exposure; type: functional
[46] = system: Klebsiella pneumoniae; assay: Antimicrobial activity against Klebsiella pneumoniae by broth dilution method; type: functional
[47] = system: Pseudomonas aeruginosa; assay: Antimicrobial activity against Pseudomonas aeruginosa HPA996 harboring beta-lactamase VIM-2 by broth dilution method; type: functional
[48] = system: Enterobacter cloacae; assay: Antimicrobial activity against Enterobacter cloacae S4741B by broth dilution method; type: functional
[49] = system: Pseudomonas aeruginosa; assay: Antimicrobial activity against Pseudomonas aeruginosa HPA10586 by broth dilution method; type: functional
[50] = system: Pseudomonas aeruginosa; assay: Antimicrobial activity against Pseudomonas aeruginosa 527 by broth dilution method; type: functional
[51] = system: Pseudomonas aeruginosa; assay: Microbicidal activity against Pseudomonas aeruginosa (560546)9 M.P. selected after MIC of compound exposure; type: functional
[52] = system: Enterobacter cloacae; assay: Antimicrobial activity against Enterobacter cloacae S9369 selected after MIC of compound exposure by broth dilution method; type: functional
[53] = system: Pseudomonas aeruginosa; assay: Microbicidal activity against Pseudomonas aeruginosa 527 selected after 8 times MIC compound exposure; type: functional
[54] = system: Pseudomonas aeruginosa; assay: Antimicrobial activity against Pseudomonas aeruginosa BA assessed as doubling time; type: functional
[55] = system: Acinetobacter junii; assay: Antimicrobial activity against Acinetobacter junii 15218 by broth dilution method; type: functional
[56] = system: Acinetobacter baumannii; assay: Antimicrobial activity against Acinetobacter baumannii HPA74510 by broth dilution method; type: functional
[57] = system: Escherichia coli; assay: Antimicrobial activity against Escherichia coli W3110 by broth dilution method; type: functional

SMILES: CC1(C)[C@H](NC(=O)/C(=N\OCc2cc(=O)c(O)cn2O)c2csc(N)n2)C(=O)N1OS(=O)(=O)O (stereo in doubt)
- pIC50 [1]: < 2.60
- MIC [2]: 0.25 µg/mL (≈ 0.482 µM)
- MBC [3]: 8 µg/mL (≈ 15.4 µM)
- MIC [4]: ≤ 0.06 µg/mL
- MIC50 [4]: ≤ 0.06 µg/mL
- MIC90 [4]: 0.25 µg/mL (≈ 0.482 µM)
- MIC [5]: > 32 µg/mL
- pIC50 [6]: 5.37
- Activity [7]: Active
- MIC [8]: 0.5 µg/mL (≈ 0.964 µM)
- Activity [9]: Active
- pIC50 [10]: 4.57
- pIC50 [11]: 5.41
- FC [12]: 3
- MIC50 [13]: 0.5 µg/mL (≈ 0.964 µM)
- MIC90 [13]: 16 µg/mL (≈ 30.9 µM)
- Activity [14]: 32 mg/L
- Activity [15]: Active
- MIC50 [16]: 2 µg/mL (≈ 3.86 µM)
- MIC90 [16]: 4 µg/mL (≈ 7.71 µM)
- FC [17]: 3
- Activity [18]: 8 mg/L
- pIC50 [19]: < 3.30
- MIC [20]: 0.5 µg/mL (≈ 0.964 µM)
- MIC [21]: 0.5 µg/mL (≈ 0.964 µM)
- MIC [22]: ≤ 0.06 µg/mL
- MIC50 [22]: ≤ 0.06 µg/mL
- MIC90 [22]: 0.25 µg/mL (≈ 0.482 µM)
- MIC [23]: ≤ 0.06 µg/mL
- MIC50 [23]: ≤ 0.06 µg/mL
- MIC90 [23]: 0.125 µg/mL (≈ 0.241 µM)
- MBC [24]: 0.125 µg/mL
- pIC50 [25]: 4.52
- Activity [26]: 5 passages
- Activity [27]: Active
- Activity [28]: Active
- Activity [29]: 4 mg/L
- Activity [30]: Active
- Activity [31]: 20 passages
- Activity [32]: 1 mg/L
- MIC [33]: 2 µg/mL (≈ 3.86 µM)
- Activity [34]: 9 passages
- MBC [35]: 0.5 µg/mL (≈ 0.964 µM)
- MIC50 [36]: 2 µg/mL (≈ 3.86 µM)
- FC [37]: 3
- MIC50 [38]: 0.5 µg/mL (≈ 0.964 µM)
- MIC90 [38]: 4 µg/mL (≈ 7.71 µM)
- Activity [39]: 1 mg/L
- MIC [40]: 0.125 µg/mL (≈ 0.241 µM)
- Activity [41]: 4 passages
- MIC [42]: 2 µg/mL (≈ 3.86 µM)
- Activity [43]: 6 passages
- MIC [44]: 1 µg/mL (≈ 1.93 µM)
- MBC [45]: 8 µg/mL (≈ 15.4 µM)
- MIC50 [46]: 16 µg/mL (≈ 30.9 µM)
- MIC90 [46]: > 32 µg/mL
- MIC [47]: 1 µg/mL (≈ 1.93 µM)

SMILES: C[C@@H](O)[C@H]1C(=O)N2C(C(=O)O)=C(S[C@@H]3CN[C@H](C(=O)N(C)C)C3)[C@H](C)[C@H]12 [MEROPENEM]
- MIC [2]: 1 µg/mL (≈ 2.61 µM)
- MIC50 [4]: 0.125 µg/mL (≈ 0.326 µM)
- MIC90 [4]: 0.5 µg/mL (≈ 1.3 µM)
- MIC [5]: 16 µg/mL (≈ 41.7 µM)
- MIC [8]: 1 µg/mL (≈ 2.61 µM)
- MIC [48]: 1 µg/mL (≈ 2.61 µM)
- MIC [49]: > 128 µg/mL
- MIC50 [13]: 0.25 µg/mL (≈ 0.652 µM)
- MIC90 [13]: 4 µg/mL (≈ 10.4 µM)
- MIC50 [16]: 0.125 µg/mL (≈ 0.326 µM)
- MIC90 [16]: 4 µg/mL (≈ 10.4 µM)
- MIC [20]: ≤ 0.06 µg/mL
- MIC [21]: 0.5 µg/mL (≈ 1.3 µM)
- MIC50 [22]: 0.125 µg/mL (≈ 0.326 µM)
- MIC90 [22]: 0.5 µg/mL (≈ 1.3 µM)
- MIC50 [23]: 2 µg/mL (≈ 5.22 µM)
- MIC90 [23]: 4 µg/mL (≈ 10.4 µM)
- Activity [26]: 2 passages
- Activity [28]: Active
- Activity [31]: 9 passages
- MIC [33]: 1 µg/mL (≈ 2.61 µM)
- MIC [50]: 2 µg/mL (≈ 5.22 µM)
- Activity [34]: 7 passages
- MBC [51]: 2 µg/mL
- MBC [52]: 2 µg/mL
- MBC [53]: 32 µg/mL (≈ 83.4 µM)
- MIC50 [38]: 1 µg/mL (≈ 2.61 µM)
- MIC90 [38]: > 32 µg/mL
- MIC [40]: > 32 µg/mL
- Activity [41]: inactive
- MIC [42]: > 32 µg/mL
- Activity [43]: inactive
- MIC [44]: 2 µg/mL (≈ 5.22 µM)
- Time [54]: 1.5 h
- MIC50 [46]: ≤ 0.06 µg/mL
- MIC90 [46]: 16 µg/mL (≈ 41.7 µM)
- MIC [55]: 0.25 µg/mL (≈ 0.652 µM)
- MIC [47]: 32 µg/mL (≈ 83.4 µM)
- MIC [56]: 1 µg/mL (≈ 2.61 µM)
- MIC [57]: 0.25 µg/mL (≈ 0.652 µM)
